Measurements as given in the supplement of paper PMC12533247.

Columns and labels:
primary keratinocytes = test: % change in live cells vs DMSO control; higher = less cytotoxic; settings: time (h post treatment): 20
Experimental: (§1)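 Cytotoxicity in uninfected 2D primary donor keratinocytes (20 h post treatment) and fibroblasts (48 h post treatment), measured with NucSpot live/dead dyes on IncuCyte. Live cells are normalised to the 0.2% DMSO control and shown as % change. Three biological replicates for each of donors 3, 4 and 5.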

[1] = system: primary dermal fibroblasts; test: as above; settings: time (h post treatment): 48
Experimental: as §1

COc1ccc(-c2nc(N3CCOCC3)c3sc(CN(C)c4ncc(C(=O)NO)cn4)cc3n2)cn1 [Fimepinostat]
% change in live cells [%]
Settings	0.082305 µM	0.246914 µM	0.740741 µM	2.22222 µM	6.66667 µM	20 µM	60 µM
[1], donor: 3	-29.3	-34.3	-41.3	-56	-61	-64.7	-75
[1], donor: 4	-13	-33.3	-44	-67.3	-60.3	-56.3	-60.3
[1], donor: 5	6.67	-8.67	-23.3	-56.3	-60	-68	-79.3
primary keratinocytes, donor: 3	-23.3	-39.7	-38.7	-41.3	-42.3	-76	-95.3
primary keratinocytes, donor: 4	-5.33	-20.7	-34.3	-59	-79.3	-99.7	-94.33
primary keratinocytes, donor: 5	-8	-13.7	-38	-58.7	-67	-80.7	-95.33

CC(C)c1cnn2c(NCc3ccccc3-n3cccn3)nc(OC3CCCNC3)nc12 (stereo not given) [LDC4297]
% change in live cells [%]
Settings	0.082305 µM	0.246914 µM	0.740741 µM	2.22222 µM	6.66667 µM	20 µM	60 µM
[1], donor: 3	-12.3	-11.3	-17.3	-22.3	-23	-24.3	-30.3
[1], donor: 4	-2.33	-6.33	-5.33	-5	-7.33	-3	0.667
[1], donor: 5	-0.667	-2.33	-7	-16.3	-22.7	-27.3	-33
primary keratinocytes, donor: 3	-12	-41.3	-36	-56.3	-75	-80.3	-90
primary keratinocytes, donor: 4	1	-17.7	-37	-70	-98.67	-97.7	-99.67
primary keratinocytes, donor: 5	-10.3	-17	-27.7	-51.7	-94.33	-95	-95.3

Cc1nc(N(C)C(=O)Cc2ccc(-c3ccccn3)cc2)sc1S(N)(=O)=O [Pritelivir]
% change in live cells [%]
Settings	0.082305 µM	0.246914 µM	0.740741 µM	2.22222 µM	6.66667 µM	20 µM	60 µM
[1], donor: 3	-10.3	-8.67	-8	-9	-11	-10	-10
[1], donor: 4	-2.67	-1	-6.33	-2	1.33	7	3.33
[1], donor: 5	7.67	7.67	3.67	0.667	-1	-1	-13
primary keratinocytes, donor: 3	-3.33	-6.67	-8.33	-6.33	-0.667	-38	-78.3
primary keratinocytes, donor: 4	-1	-18.3	-6	-4.67	-44.3	-28.7	-61.7
primary keratinocytes, donor: 5	-1.67	-7.33	-0.667	-5.33	0.333	7.67	-20

Cc1cccc(C)c1N(CC(=O)Nc1ccc(-c2ncon2)cc1)C(=O)C1CCS(=O)(=O)CC1 [Amenamevir]
% change in live cells [%]
Settings	0.082305 µM	0.246914 µM	0.740741 µM	2.22222 µM	6.66667 µM	20 µM	60 µM
[1], donor: 3	-6.67	-7	-7.33	-6	-6	-6.33	-6.33
[1], donor: 4	5	4.67	2.67	5	6.67	4.67	0
[1], donor: 5	2.33	4.33	3	0	-3	-4.67	-23.3
primary keratinocytes, donor: 3	-5	-8.33	-12	-3.33	1.67	-32.7	-70.3
primary keratinocytes, donor: 4	8.33	-12.7	-6	-3.33	-36.7	-42	-63.3
primary keratinocytes, donor: 5	-7.67	-7	-5.67	-5.33	-1.67	5.67	-5

O=C(Nc1ccc([N+](=O)[O-])cc1Cl)c1cc(Cl)ccc1O [Niclosamide]
% change in live cells [%]
Settings	0.082305 µM	0.246914 µM	0.740741 µM	2.22222 µM	6.66667 µM	20 µM	60 µM
[1], donor: 3	-18.7	-17	-16	-24.7	-35	-49.7	-56
[1], donor: 4	3	2.67	-0.333	-2	-9	-41.7	-38
[1], donor: 5	5	1.67	-1	-2.67	-26	-63	-74.33
primary keratinocytes, donor: 3	-8	-11.7	-30	-14.3	-23	-61.7	-68
primary keratinocytes, donor: 4	-13	-20.7	-20.7	-15.3	-13	-25.7	-69.7
primary keratinocytes, donor: 5	-11.7	-11.3	-8	-13.3	-9	-26.7	-54.7
